Tests used:
[1] = test system: acetylated tubulin, acetylated histone H3, acetylated histone H4 and p21 in MDA-MB-231 cell lines; experiment: Western blot analysis in MDA-MB-231 cell line; assay type: cell-based
U937 xenograft = U937 xenograft model in vivo antitumor assay
[2] = test system: class IIa HDACs (MDA-MB-231 cell lysate); details: class IIa-specific substrate, NA: not active at 10 μM

## CCCC(CCC)C(=O)N[C@H](COc1ccc(/C=C/C(=O)NO)cc1OC)Cc1c[nH]c2ccccc12 [Compound 17a]
[1]; 1 μM, 3 h and 24 h, MDA-MB-231, compared with SAHA
  effect on acetylated tubulin level: almost no effect
[1]; 1 μM, 3 h vs 24 h, MDA-MB-231
  effect on histone H4 acetylation with time: maintained even increased
[1]; 1 μM, MDA-MB-231, especially after 24 h of treatment
  effects on the levels of histone acetylation and p21 expression: comparable even superior to SAHA
[1]; MDA-MB-231 cell line
  cell permeability (by monitoring intracellular acetylation levels): cell permeable
U937 xenograft; U937 xenograft mice, once daily by oral gavage for three weeks
  toxic signs in liver and spleen: no evident toxic signs in liver and spleen
U937 xenograft; mouse, in vivo, po
  body weight loss: no significant body weight loss
[2]
  IC50 class IIa cell lysate: no obvious inhibition
